Reference: patent publication US8513162B2, “Halogen-containing organosulfur compound and use thereof” (Sumitomo Chemical Company, Limited, priority 2008, dated 2013)

Assays:
Type in all cases: in vivo
Musca domestica = assay: Test Example 4: filter paper with sucrose bait, Musca domestica; conditions: 24 h, read-out: pest death rate
Procedure: A formulation of any one of the present compounds (1), (4), (6), (7), (9), (10), (11), (12), (13), (15), (16), (17), (18), (19), (20), (21), (22), (24), (25) and (26) obtained in Formulation Example 5 was diluted with water to prepare a test solution having 500 ppm of the active ingredient.
(§1) A filter paper having a diameter of 5.5 cm was spread on the bottom of a polyethylene cup having a diameter of 5.5 cm and 0.7 ml of the test solution was added dropwise onto the filter paper. As a bait, 30 mg of sucrose was uniformly placed on the filter paper. Into the polyethylene cup, 10 female imagoes of Musca domestica were released and the cup was sealed with a lid. After 24 hours, the number of surviving or dead Musca domestica was counted and the death rate of the pest was calculated.

Culex pipiens pallens = assay: Test Example 6: Culex pipiens pallens larvae in treated water; conditions: 24 h, read-out: pest death rate
Procedure: A formulation of any one of the present compounds (4), (5), (6), (7), (8), (9), (11), (12), (15), (16), (18), (19), (20), (21), (22), and (26) obtained in Formulation Example 5 was diluted with water to prepare a test solution having 500 ppm of the active ingredient.
To 100 mL of ion-exchanged water, 0.7 ml of the test solution was added (active ingredient concentration: 3.5 ppm). Into the solution, 20 last-instar larvae of Culex pipiens pallens were released. After 1 day, the number of surviving or dead Culex pipiens pallens was counted and the death rate of the pest was calculated.

Blattalla germanica = assay: Test Example 5: filter paper with sucrose bait, Blattalla germanica; conditions: 144 h; 500 ppm active ingredient, 0.7 ml on filter paper; 2 male imagoes of Blattalla germanica; after 6 days; read-out: pest death rate
Procedure: A formulation of any one of the present compounds (4), (5), (6), (8), (12), (15), (16), (18), (22), (23) and (24) obtained in Formulation Example 5 was diluted with water to prepare a test solution having 500 ppm of the active ingredient.
as §1, with “2 male” for “10 female”, “Blattalla germanica” for “Musca domestica”, “6 days,” for “24 hours,”

| SMILES | pest or weed control at 500 ppm (Musca domestica) | pest or weed control at 3.5 ppm (Culex pipiens pallens) | pest or weed control at 500 ppm (Blattalla germanica) |
| --- | --- | --- | --- |
| N#CC(CCC(F)(F)C(F)(F)F)S(=O)(=O)CC1CCCO1 (centres unmarked) [present compound (18), 5,5,6,6,6-pentafluoro-2-(tetrahydrofuran-2-ylmethanesulfonyl)hexanenitrile] | ≥ 90% | ≥ 95% | 100% |
| N#CC(CCC(F)(F)C(F)(F)F)S(=O)(=O)CC1CCCCO1 (single isomer, unassigned) [present compound (22), 5,5,6,6,6-pentafluoro-2-(tetrahydropyran-2-ylmethanesulfonyl)hexanenitrile] | ≥ 90% | ≥ 95% | 100% |
| N#CC(C1CC[S+]([O-])CC1)S(=O)(=O)CCC(F)(F)F (centres unmarked) [present compound (5), 2-(1-oxo-1λ^4-tetrahydrothiopyran-4-yl)-2-(3,3,3-trifluoropropylsulfonyl)acetonitrile] | – | ≥ 95% | 100% |
| N#CC(C1CCSCC1)S(=O)(=O)CCC(F)(F)F (centres unmarked) [present compound (4), 2-(tetrahydrothiopyran-4-yl)-2-(3,3,3-trifluoropropylsulfonyl)acetonitrile] | ≥ 90% | ≥ 95% | 100% |
| N#CC(C1CCSCC1)S(=O)(=O)CCC(F)(F)C(F)(F)F (centres unmarked) [present compound (16), 2-(tetrahydrothiopyran-4-yl)-2-(3,3,4,4,4-pentafluorobutylsulfonyl)acetonitrile] | ≥ 90% | ≥ 95% | 100% |
| C#CCC1CCC(CS(=O)(=O)CCC(F)(F)F)O1 (single isomer, unassigned) [present compound (24), 2-(prop-2-ynyl)-5-(3,3,3-trifluoropropanesulfonylmethyl)tetrahydrofuran] | ≥ 90% | – | 100% |
| N#CC(C1CC[S+]([O-])C1)S(=O)(=O)CCC(F)(F)F (centres unmarked) [present compound (8), 2-(1-oxo-1λ^4-tetrahydrothiophen-3-yl)-2-(3,3,3-trifluoropropylsulfonyl)acetonitrile] | – | ≥ 95% | 100% |
| COC(=O)C(CCC(F)(F)C(F)(F)F)S(=O)(=O)CC1CCCO1 (centres unmarked) [present compound (25), methyl 5,5,6,6,6-pentafluoro-2-(tetrahydrofuran-2-ylmethanesulfonyl)hexanoate] | ≥ 90% | – | – |
| N#CC(C1CCS(=O)(=O)CC1)S(=O)(=O)CCC(F)(F)F (centres unmarked) [present compound (6), 2-(1,1-dioxo-1λ^4-tetrahydrothiopyran-4-yl)-2-(3,3,3-trifluoropropylsulfonyl)acetonitrile] | ≥ 90% | ≥ 95% | 100% |
| N#CC(CCC(F)(F)C(F)(F)F)S(=O)(=O)CCC1OCCO1 (centres unmarked) [present compound (21), 5,5,6,6,6,-pentafluoro-2-[2-(1,3-dioxolan-2-yl)ethanesulfonyl]pentanenitrile] | ≥ 90% | ≥ 95% | – |
| N#CC(CCC(F)(F)F)S(=O)(=O)CC1CCCO1 (centres unmarked) [present compound (17), 5,5,5-trifluoro-2-(tetrahydrofuran-2-ylmethanesulfonyl)pentanenitrile] | ≥ 90% | – | – |
| N#CC(CC1CCCCO1)S(=O)(=O)CCC(F)(F)F (centres unmarked) [present compound (12), 3-(2-tetrahydropyran-2-yl)-2-(3,3,3-trifluoropropylsulfonyl)propionitrile] | ≥ 90% | ≥ 95% | 100% |
| C#CCC1CCC(CSCCC(F)(F)F)O1 (single isomer, unassigned) [present compound (23), 2-(prop-2-ynyl)-5-(3,3,3-trifluoropropylthiomethyl)tetrahydrofuran] | – | – | 100% |
| COC(=O)N1CCC(C(C#N)S(=O)(=O)CCC(F)(F)C(F)(F)F)CC1 (centres unmarked) [present compound (15), 2-[N-(methoxycarbonyl)piperidin-4-yl]-2-(3,3,4,4,4-pentafluorobutylsulfonyl)acetonitrile] | ≥ 90% | ≥ 95% | 100% |
| N#CC(CC1CCC(=O)O1)S(=O)(=O)CCC(F)(F)F (centres unmarked) [present compound (13), 3-(2-oxotetrahydrofuran-5-yl)-2-(3,3,3-trifluoropropylsulfonyl)propionitrile] | ≥ 90% | – | – |
| CCOC(=O)N1CCC(C(C#N)S(=O)(=O)CCC(F)(F)F)CC1 (centres unmarked) [present compound (1), 2-[N-(ethoxycarbonyl)piperidin-4-yl]-2-(3,3,3-trifluoropropylsulfonyl)acetonitrile] | ≥ 90% | – | – |
| N#CC(CC1CCOC1)S(=O)(=O)CCC(F)(F)F (centres unmarked) [present compound (11), 3-(tetrahydrofuran-3-yl)-2-(3,3,3-trifluoropropylsulfonyl)propionitrile] | ≥ 90% | ≥ 95% | – |
| N#CC(CC1CCCO1)S(=O)(=O)CCC(F)(F)F (centres unmarked) [present compound (10), 3-(2-tetrahydrofuran-2-yl)-2-(3,3,3-trifluoropropylsulfonyl)propionitrile] | ≥ 90% | – | – |
| N#CC(CCCC(F)(F)C(F)(F)F)S(=O)(=O)CC1CCCO1 (centres unmarked) [present compound (19), 6,6,7,7,7-pentafluoro-2-(tetrahydrofuran-2-ylmethanesulfonyl)heptanenitrile] | ≥ 90% | ≥ 95% | – |
| N#CC(C1CCSC1)S(=O)(=O)CCC(F)(F)F (centres unmarked) [present compound (7), 2-(tetrahydrothiophen-3-yl)-2-(3,3,3-trifluoropropylsulfonyl)acetonitrile] | ≥ 90% | ≥ 95% | – |
